In patent publication US11221334B2, “Method for determining breast cancer treatment” (THE REGENTS OF THE UNIVERSITY OF COLORADO, A BODY CORPORATE, priority 2012, dated 2022):

Columns and labels:
[1] = system: AR-dependent MMTV-luciferase reporter; assay: Luciferase assay in MDA-kb2 cells; type: cell-based, human; conditions: Enza 10, 1, 0.1 μM, DHT, 24 h
Description: Luciferase Assays. MDA-kb2 cells were plated at 5×10^3 cells/well in 96-well luminescence plates and incubated overnight. Cells were treated with 10-fold serial dilutions of Enza (10, 1, 0.1 μM) and DHT (10, 1, 0.1, 0.01, 0.001 nM) that were prepared in DMSO. Following 24 h of incubation, the luminescence levels were determined with the luciferase assay system (Promega). Three independent experiments were performed and the luminescence values were determined as relative units (R.U.) and normalized to vehicle. Values were expressed as the mean fold induction±standard error (SE).

ERβ = molecular target: T1, ERβ (Homo sapiens, UniProt Q92731); assay: Radioligand binding assay, [3H] Estradiol displacement; conditions: 0.5 nM [3H] Estradiol; 0.1 μM to 100 μM
T1 construct: purchased Ricera Biosciences, LLC (contract assay)
T1 sequence (Q92731 whole entry): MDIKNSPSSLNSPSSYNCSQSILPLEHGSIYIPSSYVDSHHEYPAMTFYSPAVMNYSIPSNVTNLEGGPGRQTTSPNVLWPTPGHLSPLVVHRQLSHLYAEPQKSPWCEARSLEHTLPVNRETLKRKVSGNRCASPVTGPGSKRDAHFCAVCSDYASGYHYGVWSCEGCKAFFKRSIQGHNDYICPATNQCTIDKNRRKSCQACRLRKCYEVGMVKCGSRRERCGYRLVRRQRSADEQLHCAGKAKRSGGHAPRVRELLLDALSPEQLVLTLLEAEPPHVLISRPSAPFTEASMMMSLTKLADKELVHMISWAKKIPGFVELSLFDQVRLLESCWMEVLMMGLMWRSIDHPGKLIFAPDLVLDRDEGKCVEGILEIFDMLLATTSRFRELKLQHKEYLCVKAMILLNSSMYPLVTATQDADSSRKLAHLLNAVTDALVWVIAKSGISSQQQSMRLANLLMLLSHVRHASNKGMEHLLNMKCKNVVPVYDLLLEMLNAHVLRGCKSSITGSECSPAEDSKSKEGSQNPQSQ

ERα = molecular target: T2, ERα (Homo sapiens, UniProt P03372); assay: as above; conditions: 0.5 nM [3H] Estradiol; 0.1 μM to 100 μM
T2 construct: purchased Ricera Biosciences, LLC (contract assay)
T2 sequence (P03372 1-595): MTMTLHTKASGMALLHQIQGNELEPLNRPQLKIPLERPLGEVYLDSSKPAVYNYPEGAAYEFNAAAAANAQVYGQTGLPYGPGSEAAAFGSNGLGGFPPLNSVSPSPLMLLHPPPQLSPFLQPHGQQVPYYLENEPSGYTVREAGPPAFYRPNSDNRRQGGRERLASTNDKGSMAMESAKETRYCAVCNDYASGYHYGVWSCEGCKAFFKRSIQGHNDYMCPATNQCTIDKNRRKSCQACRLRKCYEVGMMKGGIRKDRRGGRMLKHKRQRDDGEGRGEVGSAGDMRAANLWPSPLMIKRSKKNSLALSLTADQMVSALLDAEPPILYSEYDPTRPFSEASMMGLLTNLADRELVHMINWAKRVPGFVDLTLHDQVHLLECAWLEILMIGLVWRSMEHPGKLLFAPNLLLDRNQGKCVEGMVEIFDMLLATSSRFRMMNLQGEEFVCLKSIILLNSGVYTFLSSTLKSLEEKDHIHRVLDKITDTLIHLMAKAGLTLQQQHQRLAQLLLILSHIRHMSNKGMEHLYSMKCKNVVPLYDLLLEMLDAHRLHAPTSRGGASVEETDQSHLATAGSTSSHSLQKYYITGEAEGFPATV

MCF7-TGL cells = conditions: for decrease in whole body luminescence: day 11
Description: Tumor studies. […] Briefly, 10^6 MCF7-TGL cells stably expressing a triple fusion of thymidine kinase, GLP and luciferase (SFG-NES-TGL retroviral vector) for IVIS imaging purposes were mixed with Matrigel (BD Biosciences) and injected into the fourth inguinal mammary fat pad of female, ovariectomized athymic nu/nu or non-obese diabetic (NOD)/SCID mice (Taconic). At time of tumor injection, E2 pellets (60-day release, 1.5 mg/pellet, Innovative Research of America) or DHT (8 mg/pellet, packed and sealed in silastic tubing) were implanted subcutaneously (SQ) at the back of the neck. Tumor burden was assessed using in vivo imaging system (IVIS) or caliper measurements. Once the tumors had established, the mice were matched into groups on the basis of total tumor burden as measured by IVIS or caliper. […] The feed was irradiated and stored at 4° C. before use. […] All mice were given free access to MDV3100 mixed with chow or control chow during the entire study period and at an average of 3.5 g/day food intake. Feed was changed in the animal cages twice a week. Water and feed were prepared ad libitum. Two hours prior to sacrifice, mice were injected IP with 50 mg/kg BrDU (Sigma-Aldrich). Mice were euthanized by CO2 asphyxiation followed by cervical dislocation and blood, tumors, colon, uteri and mammary glands were harvested.
Immunohistochemistry. Slides were deparaffinized in a series of xylenes and ethanols and antigens were heat retrieved in either 10 mM citrate buffer pH 6.0 (BrdU, Ki67) or 10 mM Tris/1 mM EDTA buffer at pH 9.0 (AR, ER, caspase 3). Tissue for BrdU was incubated in 2N HCl followed by 0.1M sodium borate following antigen retrieval. […] Envision-HRP (Dakocytomation) was used for antibody detection. TUNEL staining for apoptosis was performed using the ApopTag Plus Peroxidase In Situ Apoptosis Detection Kit (Millipore), as per manufacturer's instructions. […] For BrdU and TUNEL staining in xenograft studies, three separate 200× fields of each xenograft tumor were taken using an Olympus BX40 microscope (Center Valley, Pa.) with a SPOT Insight Mosaic 4.2 camera and software (Diagnostic Instruments, Inc., Sterling Heights, Mich.). A color threshold (RGB for positive staining nuclei, and HSB for total nuclei) was adjusted manually using ImageJ (National Institutes of Health) for each image, and particles created by the thresholds were analyzed for total area. RGB area was divided by HSB area and multiplied by 100 for each image. For analysis of the nuclear androgen receptor, cleaved caspase 3 and Ki67, slides were scanned at 20× on an Aperio Scan ScanScope XT. Mammary tumor tissue was traced separately for each tumor and necrotic areas of the tumor removed using a negative pen tool in Aperio's Scanscope software. A Nuclear Algorithm was utilized to measure the percent positive cells for the Ki-67 and Androgen Receptor stained slides and the data exported. Cleaved Caspase 3 stained slides were analyzed using a modified Positive Pixel Count algorithm.

PR, SDF-1 = assay: qPCR of estrogen responsive genes PR and SDF-1; type: cell-based
Description: For FASN, PRLR and GCDFP-15, SYBR green quantitative gene expression analysis was performed using the following primers: FASN [NT] ID NO: 1), FASN […] ID NO: 2); PRLR [NT] ID NO: 3), PRLR […] ID NO: 4); […] ID NO: 5), […] ID NO: 6); 18[…] ID NO: 7), 18[…] ID NO: 8). For PR and SDF-1, taqman real time PCR was performed using validated primer/probe sets from Applied Biosystems (assay IDs: PR Hs01556702_ml, SDF-1 Hs00171022 ml, 18S Hs99999901_sl). Relative gene expression was calculated using the comparative Ct method and values were normalized to 18S.

breast cancer = assay: Tamoxifen study: adjuvant tamoxifen cohort, Kaplan-Meier by AR:ER ratio; type: in vivo, female patients
[2] = E2 pellet, chow 50 mg/kg enzalutamide or tamoxifen pellet

| SMILES | activation of androgen responsive luciferase reporter [1] | binding to ERβ (ERβ) | binding to ERα (ERα) | decrease in AR nuclear localization in tumors (MCF7-TGL cells; DHT pellet, chow 50 mg/kg) | increase in apoptotic cells (TUNEL staining) (MCF7-TGL cells; DHT pellet, chow 50 mg/kg) | decrease in luminescence as compared to the DHT group (MCF7-TGL cells; DHT pellet, chow containing 50 mg/kg enzalutamide, day 19, IVIS) | tumor burden (MCF7-TGL cells; DHT pellet, enzalutamide by oral gavage) | apoptosis under E2-stimulated growth conditions (MCF7-TGL cells; E2 pellet) | decrease in whole body luminescence (MCF7-TGL cells; [2]) | E2-induced upregulation of PR and SDF-1 mRNA (PR, SDF-1) | mean time to failure (breast cancer; AR:ER<1.3) | median time to failure (breast cancer; AR:ER<1.3) | median time to failure (breast cancer; AR:ER>=1.3) | mean time to failure (breast cancer; higher AR:ER ratio group (cut point 1.3)) | decrease in cell proliferation compared to the E2 group (BrdU incorporation) (MCF7-TGL cells; [2]) |
| --- | --- | --- | --- | --- | --- | --- | --- | --- | --- | --- | --- | --- | --- | --- | --- |
| CNC(=O)c1ccc(N2C(=S)N(c3ccc(C#N)c(C(F)(F)F)c3)C(=O)C2(C)C)cc1F [enzalutamide] | inhibited activation of the luciferase construct in a dose dependent manner | did not significantly bind | did not significantly bind | 92.5% | 50% | 83.2% | decreased in a dose dependent manner | did not induce apoptosis | 70.3% | inhibited | – | – | – | – | – |
| CC/C(=C(\c1ccccc1)c1ccc(OCCN(C)C)cc1)c1ccccc1 [tamoxifen] | – | – | – | – | – | – | – | – | 59.9% | – | 45+/−2.3 months | > 120 months | 30+/−2 months | 29+/−4.3 months | 46.4% |
